Measured values from patent US5081584A, “Computer-assisted design of anti-peptides based on the amino acid sequence of a target peptide” (United States of America, priority 1989, dated 1992).
Ends that are not written are not given here.

Tests used:
[1] = target: target 13-mer (GP-1), amino terminus of a membrane glycoprotein; assay: HPLAC zonal elution on column with immobilized target 13-mer (GP-1); type: binding, rat; conditions: for binding constants (in words): text summary of Table 4; for Km: zonal elution, immobilized GP-1, 100 mM NH4OAc pH 5.7, flow rate 1.0 ml/min, extrapolated to [P]=0, read-out: Equilibrium binding constant (dissociation constant) KM/P
Method: (§1) The recognition of the target peptide by the anti-sense peptides was evaluated by high performance affinity chroma tography (I. Chaiken, Ed., "Analytical Affinity Chromatography," CRC Press, Boca Raton, 1987). This system was chosen because it allows direct measurement of molecular interactions and it is not limited by either molecular size or by the need for a specialized detection system. The target 13-mer (GP-1) was immobilized on an affinity support system. The binding properties to the target peptide were evaluated by zonal elution methods (FIG. III) (Y. Shai et al, Biochem., 26:669 (1987)). The anti-sense recognition peptides were eluted on the sense column and the retardation volume of the peptide (V) was compared to the column void volume (Vo). Equilibrium binding constants were determined by loading varying amounts of the anti-sense peptides on the column and employing the equation: [formula] where KM/P represents the dissociation constant for the binding process,
MT is the amount of target peptide immobilized and
[P]represents the amount of recognition peptide eluted E. Swaisgood et al, Biochem., 25:4148 (1986)).
The KM/P values are obtained subsequent to extrapolation to [P]=0.
Values were obtained by zonal elution on a column with immobilized target
peptide (GP1) equilibrated with 100 mM NH4 OAc, pH = 5.7 with column
flow rate of 1.0 ml/min.

[2] = target: putative ATP binding region of the raf (raf 357-376) (Rattus norvegicus, UniProt P11345); assay: HPLAC on immobilized raf ATP binding region
Method: The values of the dissociation constants (KM/P) are obtained in 0.1 M NH4 CH3 COO pH 5.7.
as §1, with “The anti-sense recognition peptides were eluted on the sense column and the retardation volume of the peptide (V) was compared to the column void volume (Vo).” left out
In order to evaluate the general applicability of the complementary scoring program, a comparison was made between the DNA derived anti-sense peptide and a computer generated recognition-peptide. […] To compare the relative affinities of the DNA derived anti-sense peptide (FAR-[…]) and the computer generated recognition peptide (FARCG--[…]), the raf ATP binding region ([…]) was immobilized on an affinity support and the two anti-sense peptides evaluated by HPLAC techniques.

Sequence | binding constants (in words) [1] | Km [1] [µM] | Km ([2]; immobilized raf ATP binding region GSGSFGTVYKGKWHGDVAVK, 0.1 M NH4CH3COO pH 5.7, read-out: Equilibrium binding constant KM/P) [µM] | fold higher affinity for the target peptide compared to the DNA derived anti-sense peptide ([2]; relative to FAR) [fold]
AAQHGRGFGIQIE [CODON-2] | millimolar range | 460 | – | –
AAQHGGGLGVQVE [CODON-1, AAQHGGGLGVQVE] | millimolar range | 920 | – | –
FHGHISMPFAFVYSSKAAAA [FAR-CG] | – | – | 8 | ~50
